pIC50: −log10 of the molar value. Counter-ions that a name gives are not always drawn. Like-named read-outs stand apart in the source and are kept apart here.
How the values were obtained:
[1] = biological target: CDK2 (p33^cdk2, cyclin E) (Homo sapiens, UniProt P24941); assay: CDK inhibition assay, p33^cdk2 kinase, histone H1 phosphorylation;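 also: Baculovirus-expressed kinase/cyclin complex from Sf9 cell extract, 10 min at 30 °C, phosphoproteins separated by SDS gel and quantified by image analysis, activity relative to DMSO control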
Protocol: Cyclin-dependent kinases (p34^cdc2, p33^cdk2) and cyclins (cyclin B, E) are produced in Sf9 insect cells coinfected with appropriate baculoviral constructs. The cells are harvested 68-72 hrs post infection in lysis buffer for 30 min on ice and the soluble fraction is recovered by centrifugation at 14.000 g for 10 min. The protein extract is stored at −80° C.
Lysis buffer: 50mM Tris pH 7.4, 150mM NaCl, 5 mM EDTA, 20 mM NaF, 1% Tween, 1 mM DTT, 0.1 mM PMSF, leupeptine, aprotonine.
To carry out experiments on kinetics under linear conditions, the final point test system for kinase activity measurement is used. The kinase is added to reaction mixture in such a way as to obtain linear activity with respect to the concentration of enzyme and with respect to time.
Kinase activity is determined at 30° C. in the kinase buffer.
Tested compounds are usually dissolved to 100 mM solutions in DMSO, final concentration of DMSO in reaction mixture never exceeds 1%. The controls contain suitable dilutions of DMSO.
After 10 min, addition 3×SDS sample buffer stops the incubations. Phosphorylated proteins are separated electrophoretically using 10% SDS polyacrylamide gel. The measurement of kinase activity is done using digital image analysis.
The kinase activity is expressed as a percentage of maximum activity, the apparent inhibition constants are determined by graphic analysis.
Kinase buffer: 50 mM Hepes pH 7.4, 10 mM MgCl2, 5 mM EGTA, 10 mM

[2] = biological target: T1, CDK1 (p34^cdc2, cyclin B) (Homo sapiens, UniProt P06493); assay: CDK inhibition assay, p34^cdc2 kinase, histone H1 phosphorylation; type: biochemical; settings: 15 μM ATP, histone H1, 30° C.
T1 construct: made in house; host or cells: Sf9 insect cells (baculovirus co-infection)
Protocol: The controls contain suitable dilutions of DMSO.
2-glycerolphosphate, 1 mM NaF, 1 mM DTT

[3] = test system: Cytokinin-dependent tobacco callus Nicotiana tabacum L. cv. Wisconsins 38; assay: Tobacco callus bioassay for cytotoxicity (herbicidal activity); type: cell-based; settings: four weeks
Protocol: The compounds to be tested were dissolved in dimethylsulfoxide (DMSO) and the solution brought up to 10^−3 M with distilled water. […] Cytokinin-dependent tobacco callus Nicotiana tabacum L. cv. […] Subcultivation was carried out every three weeks. Fourteen days before the bioassay, the callus tissue was transferred to the media without 6-benzylaminopurine. Compounds were tested with two different concentrations of 6-benzylaminopurine (10^−5 M and 10^−6 M). Inhibitory growth activity was determined from the increase in fresh callus weight after four weeks of cultivation. Five replicates were prepared for each concentration tested and the entire test was repeated at least twice.

[4] = test system: MCF7 (human breast adenocarcinoma); assay: In vitro cytotoxic activity, Calcein AM, three days; type: cell-based
Protocol: (§1) We have been using the following cell lines: HELA (human cervical carcinoma), MCF7 (human breast adenocarcinoma), NIH 3T3 (mouse fibroblasts), HOS (human osteogenic sarcoma), HL 60 (human promyelocytic leukemia), G 361 (human malignant melanoma), K562 (human chronic myeloblastic leukemia), CEM (human lymphoblastoid leukaemia). Tested drugs were added to the cell cultures in six different concentration and kept at 37° C. and 5% CO2 for three days. All cell lines were grown in DMBM medium (Gibco BRL) supplemented with 10% (v/v) fetal bovine serum and L-glutamine and maintained at 37° C. in a humidified atmosphere with 5% CO2. 10^4 cells were seeded into each well of 96 well plate, allowed to stabilize for at least 2 h and then tested compounds were added at various concentrations ranging from 200 to 0.2 μM in triplicates. Three days after drug addition Calcein AM solution (Molecular Probes) was added and let to enter the cells for 1 hour. Fluorescence of viable cells was quantified employing Fluoroskan Ascent (Microsystems).

[5] = test system: K562 (human chronic myeloblastic leukemia); assay: as above; type: cell-based; settings: read-out: K-562 IC50
Protocol: as §1

[6] = biological target: MMK1 protein kinase (Vicia faba, UniProt A0AAV1B7B8); assay: Plant MMK1 protein kinase inhibition assay; type: biochemical; settings: plant kinase purified from Vicia faba extracts
Protocol: Protein extraction and purification of pant CDK by binding to p13^suc1-beads or immunopurification with an antibody specific to the cdc2a-MS protein was carried out as described previously (Bögre et al. 1997, Plant Physiol. 113, 1997, 841-852). The MMK1 protein kinase was purified with a specific antibody from Vicia faba extracts as described by Bögre et al. 1997a, Plant Cell 9, 75-83). Protein kinase activity was measured as described above in Example 19. The quantification of radioactivity incorporated into histone H1 or myelin basic protein was undertaken using Phosphoimager (original gel images shown on FIG. 1). IC50 were calculated from dose-response curves. The drugs inhibited the activity of immunopurified Vicia faba and alfalfa Cdc2-kinase. […] In contrast to the regular bipolar spindle in untreated cell, in drug-treated metaphase cells abnormally short and dense kinetochore microtubule fibres were observed. These microtubules were randomly arranged in the vicinity of the kinetochores and connected the chromosomes. Thus the chromosomes were not aligned on the metaphase plate but were arranged in a circle, with kinetochores pointing inwards and chromosome arms pointing outwards. γ-tubulin, which plays a role in microtubule nucleation, also localised to the centre of the monopolar spindle.

[7] = biological target: CDC2a (cdc2a-MS protein, plant Cdc2-kinase) (Medicago sativa, UniProt P24923); type: biochemical
Protocol: (§2) Enzyme activity bound to p13^suc1-agarose was measured by phosphorylation of histone H1 substrate protein in the presence of various concentrations of (1) 7-furfurylamino-3-methylpyrazolo[4,3-d]pyrimidine, (2) 7-benzylamino-3-isopropylpyrazolo[4,3-d]pyrimidine, (3) 7-(3-chloroanilino)-3-isopropylpyrazolo[4,3-d]pyrimidine, (4) 7-(3-hydroxybenzyl)amino-3-isopropylpyrazolo[4,3-d]pyrimidine.
(§3) The quantification of radioactivity incorporated into histone H1 or myelin basic protein was undertaken using Phosphoimager (original gel images shown on FIG. 1). IC50 were calculated from dose-response curves.

[8] = test system: CDC2a (cdc2a-MS protein, plant Cdc2-kinase); type: biochemical; settings: enzyme bound to p13^suc1-agarose, histone H1, various concentrations
Protocol: as §2, §3

[9] = test system: root meristem cells of V. faba; assay: Antimitotic and apoptotic effects in plant root meristem cells; type: cell-based, Vicia faba; settings: high doses
[10] = Nicotiana tabacum, 672 h, read-out: IC50, growth of tobacco callus, 10^−5 M BAP, 10^−5 M 6-benzylaminopurine
[11] = Nicotiana tabacum, 672 h, 10^−6 M 6-benzylaminopurine, read-out: IC50, growth of tobacco callus, 10^−6 M BAP
[12] = read-out: CDK2 IC50, 15 μM ATP, histone H1, 30° C.

CDC2a (cdc2a-MS protein, plant Cdc2-kinase) (Medicago sativa, UniProt P24923), sequence (P24923 whole entry): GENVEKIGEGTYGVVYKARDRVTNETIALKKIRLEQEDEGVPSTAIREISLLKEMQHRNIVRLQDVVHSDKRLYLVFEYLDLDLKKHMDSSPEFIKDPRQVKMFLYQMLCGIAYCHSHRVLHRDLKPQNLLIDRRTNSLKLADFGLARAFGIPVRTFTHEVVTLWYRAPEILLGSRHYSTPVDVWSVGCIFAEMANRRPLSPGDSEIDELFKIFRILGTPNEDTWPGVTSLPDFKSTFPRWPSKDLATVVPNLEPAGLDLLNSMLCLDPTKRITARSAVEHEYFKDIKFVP
T1 sequence (P06493 whole entry, species assumed): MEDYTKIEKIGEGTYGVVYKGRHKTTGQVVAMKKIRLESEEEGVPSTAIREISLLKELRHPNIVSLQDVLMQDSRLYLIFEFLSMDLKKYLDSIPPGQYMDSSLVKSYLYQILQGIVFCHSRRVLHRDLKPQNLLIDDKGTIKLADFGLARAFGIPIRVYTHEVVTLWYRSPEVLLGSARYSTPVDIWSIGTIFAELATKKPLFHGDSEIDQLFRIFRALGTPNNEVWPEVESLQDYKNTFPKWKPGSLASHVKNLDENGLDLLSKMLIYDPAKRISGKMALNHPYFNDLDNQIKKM
T1 sequence (P14635 whole entry partner, species assumed): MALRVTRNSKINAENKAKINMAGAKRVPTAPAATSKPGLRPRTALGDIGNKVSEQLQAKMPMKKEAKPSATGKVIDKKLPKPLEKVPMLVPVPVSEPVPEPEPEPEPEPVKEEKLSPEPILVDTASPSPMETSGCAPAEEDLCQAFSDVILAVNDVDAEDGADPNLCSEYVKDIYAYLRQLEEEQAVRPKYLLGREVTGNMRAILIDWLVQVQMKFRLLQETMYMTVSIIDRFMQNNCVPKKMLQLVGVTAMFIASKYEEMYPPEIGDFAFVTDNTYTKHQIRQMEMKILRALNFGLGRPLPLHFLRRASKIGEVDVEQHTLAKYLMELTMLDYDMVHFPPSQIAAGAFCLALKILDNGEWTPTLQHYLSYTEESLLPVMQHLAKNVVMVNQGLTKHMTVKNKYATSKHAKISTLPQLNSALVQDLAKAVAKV
MMK1 protein kinase, sequence (A0AAV1B7B8 entry or part of it): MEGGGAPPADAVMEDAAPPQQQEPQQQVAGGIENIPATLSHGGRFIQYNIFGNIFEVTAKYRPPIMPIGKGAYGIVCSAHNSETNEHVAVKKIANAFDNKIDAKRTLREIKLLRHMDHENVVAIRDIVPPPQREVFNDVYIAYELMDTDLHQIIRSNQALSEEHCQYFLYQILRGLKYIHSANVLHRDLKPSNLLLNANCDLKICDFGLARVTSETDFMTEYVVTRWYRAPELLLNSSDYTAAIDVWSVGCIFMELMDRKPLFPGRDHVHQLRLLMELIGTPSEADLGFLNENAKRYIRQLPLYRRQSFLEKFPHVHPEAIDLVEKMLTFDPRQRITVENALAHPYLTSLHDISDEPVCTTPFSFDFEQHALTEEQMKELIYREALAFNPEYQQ

Structure (SMILES) | pIC50 [1] | pIC50 [2] | pIC50 [3, 10] | pIC50 [3, 11] | pIC50 ([4]; Homo sapiens, MCF7, 72 h) | pIC50 ([5]; Homo sapiens, K562, 72 h) | other results
CC(C)c1n[nH]c2c(Nc3cccc(Cl)c3)ncnc12 (as salt: salt) [3-chloroanilino / isopropyl, 7-(3-chloroanilino)-3-isopropylpyrazolo[4,3-d]pyrimidine] |  |  |  |  |  |  | melting point: 213 to 216 °C
CC(C)c1n[nH]c2c(NCc3ccccc3Cl)ncnc12 [2-chlorobenzylamino / isopropyl] | 5.70 | 5.68 | 4.51 | 5.34 | 4.82 | 4.68 | 
Cc1n[nH]c2c(NCc3ccccc3Cl)ncnc12 [2-chlorobenzylamino / methyl] |  | 4.60 |  |  |  |  | pIC50 [1, 12]: 4.62; pIC50 [6]: 4.60
Cc1ccccc1CNc1ncnc2c(C(C)C)n[nH]c12 [2-methylbenzylamino / isopropyl] | 5.85 | 5.70 | 4.85 | 5.38 | 4.20 | 4.12 | 
CC(C)c1n[nH]c2c(Nc3ccc(Cl)c(C(=O)O)c3)ncnc12 [3-carboxy-4-chloroanilino / isopropyl] |  | 5.55 |  |  |  |  | pIC50 [1, 12]: 5.54; pIC50 [6]: 5.77; pIC50 [7]: 5.80; pIC50 [4]: 6.40; pIC50 [5]: 6.00
Cc1n[nH]c2c(Nc3ccc(N)c(Cl)c3)ncnc12 [3-chloro-4-aminoanilino / methyl] |  | 4.59 |  |  |  |  | pIC50 [1, 12]: 4.55; pIC50 [6]: 4.49; pIC50 [7]: 4.52
CC(C)c1n[nH]c2c(Nc3cccc(Cl)c3)ncnc12 [3-chloroanilino / isopropyl, 7-(3-chloroanilino)-3-isopropylpyrazolo[4,3-d]pyrimidine] | 6.10 | 5.70 | 4.47 | 5.09 | 5.05 | 4.92 | inhibition of plant cdc2 kinase activity (FIG. 1) [8]: specific inhibition
Cc1n[nH]c2c(Nc3cccc(Cl)c3)ncnc12 [3-chloroanilino / methyl] |  | 4.85 |  |  |  |  | pIC50 [1, 12]: 4.80; pIC50 [6]: 5.02; pIC50 [7]: 5.00; pIC50 [4]: 4.62; pIC50 [5]: 4.46
CC(C)c1n[nH]c2c(NCc3cccc(Cl)c3)ncnc12 [3-chlorobenzylamino / isopropyl] | 5.03 | 5.06 | 4.70 | 5.77 | 4.62 | 4.59 | 
CC(C)c1n[nH]c2c(NCc3cccc(O)c3)ncnc12 [3-hydroxybenzylamino / isopropyl, 7-(3-hydroxybenzylamino)-3-isopropylpyrazolo[4,3-d]pyrimidine] | 6.05 | 5.96 |  |  | 3.98 | 3.88 | inhibition of plant cdc2 kinase activity (FIG. 1) [8]: specific inhibition
Cc1cccc(CNc2ncnc3c(C(C)C)n[nH]c23)c1 [3-methylbenzylamino / isopropyl] | 5.51 | 5.66 | 4.59 | 5.07 | 4.12 | 4.03 | 
COc1ccc(CNc2ncnc3c(C(C)C)n[nH]c23)cc1 [4-methoxybenzylamino / isopropyl, 7-(4-methoxybenzyl)amino-3-isopropylpyrazolo[4,3d]pyrimidine] | 6.00 | 5.64 |  |  | 4.55 | 4.39 | melting point: 143 to 144 °C
CC(C)c1n[nH]c2c(NC3CCCCC3N)ncnc12 (stereo not shown) [(2-aminocyclohexyl)amino / isopropyl] |  | < 4.00 |  |  |  |  | pIC50 [1, 12]: < 4.00; pIC50 [6]: < 4.00; pIC50 [7]: < 4.00; pIC50 [4]: < 3.78; pIC50 [5]: < 3.78
C=CCNc1ncnc2c(C(C)C)n[nH]c12 [allylamino / isopropyl] | 4.85 | 4.80 | 4.74 | 5.43 | 4.19 | 4.11 | 
CC(C)c1n[nH]c2c(Nc3ccccc3)ncnc12 [anilino / isopropyl] | 5.28 | 5.36 | 4.39 | 5.28 | 4.82 | 4.68 | 
CC(C)c1n[nH]c2c(NCc3ccccc3)ncnc12 [benzylamino / isopropyl, 7-benzylamino-3-isopropylpyrazolo[4,3-d]pyrimidine] | 6.30 | 5.89 | 4.62 | 5.19 | 4.26 | 4.14 | melting point: 153 to 154 °C; inhibition of plant cdc2 kinase activity (FIG. 1) [8]: specific inhibition
CC(C)c1n[nH]c2c(NC3CCC3)ncnc12 [cyclobutylamino / isopropyl] |  |  |  |  |  |  | pIC50 ([3]; 10^−6 M 6-benzylaminopurine, read-out: IC50, growth of tobacco callus, 10^−6 M BAP): 5.37; pIC50 ([3]; read-out: IC50, growth of tobacco callus, 10^−5 M BAP, 10^−5 M 6-benzylaminopurine): 4.92; pIC50 [4]: 4.35; pIC50 [5]: 4.22
CC(C)c1n[nH]c2c(NC3CCCCC3)ncnc12 [cyclohexylamino / isopropyl] | 4.02 | 4.10 | 4.34 | 5.03 | 4.02 | 4.01 | 
CC(C)c1n[nH]c2c(NCc3ccco3)ncnc12 [furfurylamino / isopropyl, 7-furfurylamino-3-isopropylpyrazolo[4,3-d]pyrimidine] | 6.10 | 5.74 | 4.60 | 5.03 | 3.89 | < 3.78 | melting point: 179 to 182 °C
Cc1n[nH]c2c(NCc3ccco3)ncnc12 [furfurylamino / methyl, 7-furfurylamino-3-methylpyrazolo[4,3-d]pyrimidine] | 4.80 | 4.74 |  |  | 3.85 | < 3.78 | inhibition of plant cdc2 kinase activity (FIG. 1) [8]: specific inhibition
CC(C)=CCNc1ncnc2c(C(C)C)n[nH]c12 [isopentenylamino / isopropyl, 7-(isopent-2-en-(1-yl)amino)-3-isopropylpyrazolo[4,3-d]pyrimidine] | 5.89 | 5.35 | 4.82 | 5.77 | < 3.78 | < 3.78 | 
CCCCCNc1ncnc2c(C(C)C)n[nH]c12 [pentylamino / isopropyl, 7-pentylamino-3-isopropylpyrazolo[4,3-d]pyrimidine] | 5.85 | 5.77 |  |  | 4.49 | 4.21 | melting point: 73 to 75 °C
CC[C@H](CO)Nc1nc(NCc2ccccc2)c2ncn(C(C)C)c2n1 [roscovitine] |  |  |  |  |  |  | apoptosis in plant cells [9]: induced apoptosis
